A value given as a limit tells only on which side of the number the result lay.

For this assay, the target named is T1, BTK (Homo sapiens, UniProt Q06187).
T1 construct: The GM01501.3 cell line endogenously expresses BTK with a HiBiT fusion tag via CRISPR knock-in at its C-terminal region; endogenous in cells; host or cells: GM01501.3 (GM01501 cells engineered by CRISPR knock-in of HiBiT at the BTK locus)
T1 sequence (Q06187 whole entry, the tested form may be a part): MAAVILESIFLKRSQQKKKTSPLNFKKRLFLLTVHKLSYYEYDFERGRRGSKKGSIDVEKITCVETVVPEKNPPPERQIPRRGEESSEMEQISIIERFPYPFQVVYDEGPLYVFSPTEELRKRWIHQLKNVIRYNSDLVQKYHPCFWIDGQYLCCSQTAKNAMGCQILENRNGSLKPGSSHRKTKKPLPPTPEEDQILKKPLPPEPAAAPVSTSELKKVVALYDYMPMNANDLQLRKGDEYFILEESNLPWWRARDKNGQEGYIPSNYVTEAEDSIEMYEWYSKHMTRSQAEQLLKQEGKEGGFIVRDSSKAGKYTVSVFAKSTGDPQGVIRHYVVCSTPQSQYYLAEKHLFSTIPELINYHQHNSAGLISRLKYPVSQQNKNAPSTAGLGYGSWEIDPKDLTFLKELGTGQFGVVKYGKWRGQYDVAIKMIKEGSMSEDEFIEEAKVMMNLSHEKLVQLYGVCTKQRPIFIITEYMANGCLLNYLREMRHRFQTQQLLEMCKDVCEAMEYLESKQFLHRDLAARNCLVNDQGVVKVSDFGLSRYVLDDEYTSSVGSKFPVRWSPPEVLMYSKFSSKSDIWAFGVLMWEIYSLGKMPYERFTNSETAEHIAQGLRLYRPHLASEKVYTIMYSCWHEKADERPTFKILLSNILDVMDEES
The assay is described as follows: BTK degradation assay using the HiBiT Method (Nano-Glo HiBiT Lytic Assay, GM01501.3 cells). To be noted: HiBiT Degradation on GM01501.3 BTK @ 6 hours. The assay is classed as cell-based. Put shortly:
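Degradation read-out: HiBiT luminescence after lytic reagent addition, giving DC50. Compounds dosed from 10 μM in 11 half-log steps (duplicate) onto GM01501.3 cells, whose endogenous BTK carries a C-terminal HiBiT knock-in tag; 6 h exposure, 37 °C, 5% CO2.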
For orientation: HiBiT is a short tag that completes a luciferase, so light tracks the accessible tagged protein.
As usually defined, the DC50 is the concentration at which degradation of the target reaches its halfway point. Low values mean a more potent degrader, high ones a less potent degrader. As for `CC(C)(C)c1nc(C(=O)NCc2ccc(-c3ncnn4cc(CCCCN5CCC(c6ccc(NC7CCC(=O)NC7=O)nc6)CC5)cc34)cc2F)no1` (stereo not drawn) [Example 138, 5-tert-butyl-N-[[4-[6-[4-[4-[6-[(2,6-dioxo-3-piperidyl)amino]-3-pyridyl]-1-piperidyl]butyl]pyrrolo[2,1-f][1,2,4]triazin-4-yl]-2-fluoro-phenyl]methyl]-1,2,4-oxadiazole-3-carboxamide], the DC50 is < 100 nM.

As for `CC(C)(C)c1nc(C(=O)NCc2ccc(-c3ncnn4cc(CCC(F)(F)CN5CCC(c6ccc(C7CCC(=O)NC7=O)cc6)CC5)cc34)cc2F)no1` (stereo not drawn) [Example 169, 5-tert-butyl-N-[[4-[6-[4-[4-[4-(2,6-dioxo-3-piperidyl)phenyl]-1-piperidyl]-3,3-difluoro-butyl]pyrrolo[2,1-f][1,2,4]triazin-4-yl]-2-fluoro-phenyl]methyl]-1,2,4-oxadiazole-3-carboxamide], the DC50 was 100 to 500 nM.

Regarding `Cc1cc(-c2ncnn3cc(-c4ccc(OCCCCCCN5CCC(c6ccc(NC7CCC(=O)NC7=O)cc6)CC5)cc4)cc23)ccc1CNC(=O)c1noc(C(C)(C)C)n1` (stereo not drawn) [Example 114, 5-tert-butyl-N-[[4-[6-[4-[6-[4-[4-[(2,6-dioxo-3-piperidyl)amino]phenyl]-1-piperidyl]hexoxy]phenyl]pyrrolo[2,1-f][1,2,4]triazin-4-yl]-2-methyl-phenyl]methyl]-1,2,4-oxadiazole-3-carboxamide], the DC50 is < 100 nM.

`Cn1nc(N2CCC(=O)NC2=O)c2ccc(C3CCN(CCc4cc5c(-c6ccc(CNC(=O)c7noc(C(C)(C)C)n7)c(F)c6)ncnn5c4)CC3)cc21` [Example 124]: the DC50 is < 100 nM.

For `Cc1cc(-c2ncnn3cc(-c4ccc(OCCN5CCC(c6ccc(NC7CCC(=O)NC7=O)cc6)CC5)cc4)cc23)ccc1CNC(=O)c1noc(C(C)(C)C)n1` (stereo not drawn) [Example 105, 5-tert-butyl-N-[[4-[6-[4-[2-[4-[4-[(2,6-dioxo-3-piperidyl)amino]phenyl]-1-piperidyl]ethoxy]phenyl]pyrrolo[2,1-f][1,2,4]triazin-4-yl]-2-methyl-phenyl]methyl]-1,2,4-oxadiazole-3-carboxamide], the DC50 was < 100 nM.

Turning to `CC(C)(C)c1nc(C(=O)NCc2ccc(-c3ncnn4cc(-c5ccc(CN6CCN(Cc7ccc(OC8CCC(=O)NC8=O)cc7)CC6)cn5)cc34)cc2F)no1` (stereo not drawn) [Example 234, 5-(tert-butyl)-N-(4-(6-(5-((4-(4-((2,6-dioxopiperidin-3-yl)oxy)benzyl)piperazin-1-yl)methyl)pyridin-2-yl)pyrrolo[2,1-f][1,2,4]triazin-4-yl)-2-fluorobenzyl)-1,2,4-oxadiazole-3-carboxamide], the DC50 was < 100 nM.

Turning to `Cc1cc(-c2ncnn3cc(-c4ccc(OCCN5CCC(c6ccc(C7CCC(=O)NC7=O)cc6)CC5)cc4)cc23)ccc1CNC(=O)c1noc(C(C)(C)C)n1` (stereo not drawn) [Example 104, 5-tert-butyl-N-[[4-[6-[4-[2-[4-[4-(2,6-dioxo-3-piperidyl)phenyl]-1-piperidyl]ethoxy]phenyl]pyrrolo[2,1-f][1,2,4]triazin-4-yl]-2-methyl-phenyl]methyl]-1,2,4-oxadiazole-3-carboxamide], the 50% degradation concentration (DC50) is < 100 nM.

For `Cc1c(NC(=O)c2cc3c(s2)CCCC3)cc(F)cc1-c1ncnn2cc(-c3ccc(CN4CCC(c5ccc(NC6CCC(=O)NC6=O)cc5)CC4)cc3)cc12` (stereo not drawn) [Example 152, N-(3-(6-(4-((4-(4-((2,6-dioxopiperidin-3-yl)amino)phenyl)piperidin-1-yl)methyl)phenyl)pyrrolo[2,1-f][1,2,4]triazin-4-yl)-5-fluoro-2-methylphenyl)-4,5,6,7-tetrahydrobenzo[b]thiophene-2-carboxamide], the DC50 is < 100 nM.

For `Cc1cc(-c2ncnn3cc(-c4ccc(CN5CCC(c6cnc(NC7CCC(=O)NC7=O)nc6)CC5)cc4)cc23)ccc1CNC(=O)c1noc(C(C)(C)C)n1` (stereo not drawn) [Example 30, 5-tert-butyl-N-[[4-[6-[4-[[4-[2-[(2,6-dioxo-3-piperidyl)amino]pyrimidin-5-yl]-1-piperidyl]methyl]phenyl]pyrrolo[2,1-f][1,2,4]triazin-4-yl]-2-methyl-phenyl]methyl]-1,2,4-oxadiazole-3-carboxamide], the 50% degradation concentration (DC50) is < 100 nM.

The values are drawn from patent publication US20240287076A1, “COMPOUNDS FOR TARGETING DEGRADATION OF BRUTON'S TYROSINE KINASE” (BIOGEN MA INC., priority 2021, published 2024).
